Source: patent publication US20260069626A1, “Compositions and Methods to Protect and Enhance Structural and Functional Integrity of the Intestinal Glycocalyx” (Calroy Health Sciences, LLC, priority 2023, published 2026)

Columns and labels:
[1] = test system: mouse intestinal glycocalyx; experiment: DSS-treated mice: WGA-FITC immunofluorescence of colon glycocalyx (Example 3); assay type: in vivo; conditions: for Average Florescence Intensity of Mouse Intestinal Glycocalyx after WGA-FITC Staining (AVI): oral mg/kg/day per Table IV: single agents 100, 3′-SL + 6′-SL 100 each, HMOs 50 each + COS 100; for mouse intestinal glycocalyx (FIG. 8, FIG. 9): oral, doses of Table IV
Description: Male C57BL/6J mice (18-20 g) of 6 weeks old were housed under controlled conditions with a constant temperature (23±2° C.), stable humidity, and a 12-hour light/dark cycle. After a one-week acclimatization period, the mice were randomly divided into 7 groups, with 5 mice per group: Control, DSS, DSS+3′-SL, DSS+6′-SL, DSS+5-ASA, DSS+6′-SL+3′-SL, and DSS+HMOs+COS. The control group received sterile water for 19 days. The DSS group was given 4% (wt/vol) DSS in their drinking water from days 8-14, with daily oral gavage of sterile water for 11 days. The other groups were treated with 3% DSS in their drinking water from days 8-14, along with oral administration of various functional glycans (mg/kg/day) of COS up to the 19th day (See Experimental Design in Table III). The DSS solution was replaced every two days to maintain its bioactivity. Mouse body weight, stool consistency, and rectal bleeding were monitored daily, alongside observations of coat sheen, mental state, and activity levels.
Immunofluorescence staining of mouse colon tissue was performed using the following procedure. Paraffin sections were prepared from the distal colon, 1 cm from the anus. Deparaffinization and rehydration were performed with xylene and ethanol, as follows: xylene (5 min×2), 100% ethanol (5 min×2), 90% ethanol (5 min×1), 80% ethanol (5 min×1), 70% ethanol (5 min×1), and deionized water (10 s). Endogenous peroxidase activity was quenched with 0.75% hydrogen peroxide for 10 minutes, followed by PBS washes. Antigen retrieval was performed by boiling the sections in 0.01 mol/L sodium citrate for 30 minutes. For WGA staining, sections were incubated overnight at 4° C. with 0.1 μg/μL FITC-WGA in PBS (40 μL per sample). After washing with PBS, nuclei were counterstained with DAPI and sections were mounted with an anti-fade medium. The stained sections were visualized under a fluorescence microscope, and the colonic mucosal glycocalyx was quantified using ImageJ software.

[2] = test system: C57BL/6J mice treated with DSS; experiment: DSS-treated mice: body weight and Disease Activity Index (Example 3); assay type: in vivo, mouse; conditions: oral, doses of Table IV
Description: Male C57BL/6J mice (18-20 g) of 6 weeks old were housed under controlled conditions with a constant temperature (23±2° C.), stable humidity, and a 12-hour light/dark cycle. After a one-week acclimatization period, the mice were randomly divided into 7 groups, with 5 mice per group: Control, DSS, DSS+3′-SL, DSS+6′-SL, DSS+5-ASA, DSS+6′-SL+3′-SL, and DSS+HMOs+COS. The control group received sterile water for 19 days. The DSS group was given 4% (wt/vol) DSS in their drinking water from days 8-14, with daily oral gavage of sterile water for 11 days. […] Mouse body weight, stool consistency, and rectal bleeding were monitored daily, alongside observations of coat sheen, mental state, and activity levels. The Disease Activity Index (DAI) was used to assess colitis severity, calculated as the mean of the scores for weight loss, stool consistency, and rectal bleeding as described below. Mice were weighed daily at the same time, with the percentage of weight loss compared to the end of the acclimation period: <1% scored 0; 1-5% scored 1; 5-10% scored 2; 10-20% scored 3; >20% scored 4. Stool consistency was also evaluated daily: normal stool scored 0; soft but formed stool scored 1; paste-like stool scored 2; liquid stool scored 3. […] The DAI was calculated as the average of these three scores. […]

[3] = test system: Caco-2 intestinal epithelial cell glycocalyx; experiment: Prevention/repair of DSS damage to Caco-2 glycocalyx, microfluidic chip, WGA-FITC (Example 2); assay type: cell-based; conditions: 2% DSS, single agents 200 μg/ml, 6′-SL and 3′-SL each 100 μg/ml, 100 μg/ml COS with 50 μg/ml each of 6′-SL, 2′-FL
Description: Using the same microfluidic chip model in Example 1, different functional glycans of RS, COS and hMO, and some combinations were evaluated for their capability to prevent and repair the damages of Caco-2 intestinal epithelial cell glycocalyx caused by DSS. […] In addition to DSS, a positive control of 5-aminosalicylic acid (5-ASA), RS, COS, different hMOS, and a combination of hMOs and COS at different concentrations in phosphate-buffered saline (PBS) with water were introduced into microfluidic chips for testing their effects on the intestinal glycocalyx in the presence of DSS.
FIG. 1 depicts the images of the intestinal epithelial cell glycocalyx and nucleus stained by WGA-FITC individually and together. […] Briefly, 2% DSS caused a significant decrease of intestinal glycocalyx as measured by WGA fluorescence intensity.

SMILES | Average Florescence Intensity of Mouse Intestinal Glycocalyx after WGA-FITC Staining (AVI) [1] | mouse intestinal glycocalyx (FIG. 8, FIG. 9) [1] | DAI at the end of the study compared to DSS only (FIG. 6) [2] | body weight at the end of the study compared to DSS only (FIG. 4) [2] | damage of the intestinal glycocalyx caused by DSS (WGA fluorescence intensity, FIG. 1-2) [3]
CC(=O)N[C@H]1[C@H]([C@H](O)[C@H](O)CO)O[C@@](O[C@H]2[C@@H](O)[C@@H](CO)O[C@@H](O[C@H]3[C@H](O)[C@@H](O)C(O)O[C@@H]3CO)[C@@H]2O)(C(=O)O)C[C@@H]1O (stereo partly drawn) [3′-SL, 3′-sialyllactose] | 2.45 | increased |  |  | 
Nc1ccc(O)c(C(=O)O)c1 [5-ASA, 5-aminosalicylic acid, reference compound] | 2.56 |  | significantly reduced | significant increase | significantly prevented the damage
CC(=O)N[C@H]1[C@H]([C@H](O)[C@H](O)CO)O[C@@](OC[C@H]2O[C@@H](O[C@H]3[C@H](O)[C@@H](O)[C@H](O)O[C@@H]3CO)[C@H](O)[C@@H](O)[C@H]2O)(C(=O)O)C[C@@H]1O [6′-SL, 6′-sialyllactose] | 2.75 | increased |  |  | significantly prevented the damage
